# Assay results from patent US12187816B2, “Macrocyclic compounds and methods of use thereof” (Genentech, Inc., priority 2020, dated 2025).
# Starred links: 1 amine or outer side, 2 acyl side, 3 side chain; linkers in the order of their positions; H or OH if unused. Positions of bridges follow the written chain, without caps; N, C: chain ends. Non-standard residues stand in square brackets, D forms with d. Residues, ends and D or L forms follow the SMILES beside them. Groups on a side chain read outwards from the residue. *: point of attachment. JQ1acid = Cc1sc2c(c1C)C(c1ccc(Cl)cc1)=N[C@@H](CC(=O)*)c1nnc(C)n1-2; dPhg(4-(4-Me-thiazol-5-yl)) = Cc1ncsc1-c1ccc([C@@H](N)C(=O)O)cc1; Phg(4-(4-Me-thiazol-5-yl)) = Cc1ncsc1-c1ccc([C@H](N)C(=O)O)cc1; X12 = Cc1sc2c(c1C)C(c1ccc(Cl)cc1)=N[C@H](CC(=O)*)c1nnc(C)n1-2; X9 = O=C(C[C@@H](Cc1ccc(-c2ccccc2)cc1)N[*:1])[*:2]; X3 = Cc1ncsc1-c1ccc(C(N[*:1])C(=O)[*:2])cc1; dBip = N[C@H](Cc1ccc(-c2ccccc2)cc1)C(=O)O; Hyp = O=C(O)[C@@H]1C[C@@H](O)CN1; d(β3hK) = NCCCC[C@@H](N)CC(=O)O; d4Pal = N[C@H](Cc1ccncc1)C(=O)O; Tle = CC(C)(C)[C@H](N)C(=O)O; AEEEA = NCCOCCOCCOCC(=O)O; dNMeC = CN[C@H](CS)C(=O)O; dDap = NC[C@@H](N)C(=O)O; Ahx = NCCCCCC(=O)O; AEA = NCCOCC(=O)O; βAla = NCCC(=O)O
# Target: T1, BRD4 (Homo sapiens, UniProt O60885)
# T1 construct: Mean 488 intensity of BRD4 quantitated in nuclear region; endogenous in cells; host or cells: EoL-1 eosinophilic leukemia cells
# Assay: BRD4 degradation assay in EOL1 cells (immunofluorescence imaging)
# Type: cell-based
# Details: EoL-1 eosinophilic leukemia cells, 4 hours treatment, nuclear BRD4 immunofluorescence
# Procedure: BRD4 Degradation Assay in EOL1 Cells
# EoL-1 eosinophilic leukemia cells were seeded on day 1 at a density of 45,000 cells per well in Corning PureCoat Amine Microplates, (Corning #354719) in 45 μL/well of assay media (RPMI, 10% FBS, containing L-glutamine). After cells attached to cell plate, compounds were serially diluted ⅓ in dimethylsulfoxide (DMSO) to create 20-point dilutions across a 384 well v-bottom polypropylene microplate (Greiner #781091). 2 μL of each sample from the serial dilution was transferred to 98 μL of assay media as an intermediate dilution. 5 μL of each well of the intermediate dilution was added to 45 μL of cell plate. Columns 1, 2, 23 and 24 were treated with only 0.2% final concentration of DMSO for data normalization as “neutral controls”. After compound treatment, cell plates were stored in a 37° C. incubator for 4 hours. After 4 hours cells were fixed in 3.7% w/v final concentration of paraformaldehyde by addition of 15 μL of 16% w/v paraformaldehyde (Electron Microscopy Sciences #15710-S) directly to the 50 μL media and compound in the cell plate. Cell plate was incubated at RT for 20 minutes. Well contents were aspirated and washed with 100 μL/well PBS 3 times. 50 ul/well of phosphate Buffered Saline (PBS) (pH 7.5) containing 0.5% w/v bovine serum albumen, 0.5% w/v Triton X-100 (Block/Permeabilization Buffer) was added to each well. Samples were incubated for 20 minutes. Well contents were aspirated and washed 3 times with 100 μL/well of PBS. PBS was aspirated from the well and 50 μL per well of EoL-1 Block Buffer (PBS containing 10% Normal Goat Serum (AbCam #ab7481)) was added to each well. Plates were incubated at room temperature for 30 minutes. Block buffer was decanted from the wells. Immunofluorescence staining of BRD4 was carried out by diluting mAB Anti-BRD4 [EPR5150] antibody (Abcam 128874) 1:500 into Antibody Dilution Buffer (PBS, 2% Normal Goat Serum). 25 μL per well of BRD4 antibody diluted in buffer was added and incubated overnight at 4° C.
# On day-2 samples were washed 3 times with 100 μL/well of PBS. 25 μL/well of secondary antibody solution (Goat Anti-Rabbit IgG, DyLight 488 Conjugated Highly Cross-adsorbed Thermo Fisher #35553) and Hoechst 33342 1 μg/ml diluted in Antibody Dilution Buffer) were dispensed into each well. Hoechst 33342 only was added to bottom 3 columns for data normalization as “inhibitor controls”. Samples were incubated for 2 hours at room temperature. Samples were washed 3 times with 100 μL PBS. Quantitative fluorescence imaging of BRD4 was carried out using an Opera Phenix High-Content Screening System. Fluorescent images of the samples were captured using 488 nm and 405 nm channels. Hoechst channel was used to identify nuclear region. Mean 488 intensity of BRD4 quantitated in nuclear region. Data analysis was carried out using Genedata Screener, with DMSO and no primary antibody control treated samples being used to define the 0% and 100% changes in BRD4. The dose-response log(inhibitor) vs. response used to define the inflexion point of curve (DC50) and the plateau of the maximal effect.
# The individual topological polar surface area (TPSA) and cLogP values were calculated using Chemdraw v. 15.1 (PerkinElmer). Half life of the ternary VHL/BD1 and VHL/BD2 complexes, DC50 of BRD4 in EOL1 cells, topological polar surface area of a molecule (TPSA) and c log P (lipophilicity) for compounds described herein are provided in Table 3.
row,DC50 [µM],SMILES
1,< 20,Cc1ncsc1-c1ccc([C@H]2NC(=O)[C@@H]3C[C@@H](O)CN3C(=O)[C@H](C(C)(C)C)NC(=O)CSC[C@H](C(N)=O)N(C)C(=O)[C@@H](CNC(=O)C[C@@H]3N=C(c4ccc(Cl)cc4)c4c(sc(C)c4C)-n4c(C)nnc43)NC(=O)CNC2=O)cc1 [Compound 15] ({CH2CO}-[Tle][Hyp][dPhg(4-(4-Me-thiazol-5-yl))]G[dDap](JQ1acid)[dNMeC]-NH2; thioether N-6)
2,< 1,Cc1ncsc1-c1ccc([C@H]2NC(=O)[C@@H]3C[C@@H](O)CN3C(=O)[C@H](C(C)(C)C)NC(=O)CSC[C@H](C(N)=O)NC(=O)[C@@H](CNC(=O)C[C@@H]3N=C(c4ccc(Cl)cc4)c4c(sc(C)c4C)-n4c(C)nnc43)NC(=O)CNC2=O)cc1 [Compound 1] ({CH2CO}-[Tle][Hyp][dPhg(4-(4-Me-thiazol-5-yl))]G[dDap](JQ1acid)[dC]-NH2; thioether N-6)
3,> 20,Cc1ncsc1-c1ccc([C@@H]2NC(=O)[C@@H]3C[C@@H](O)CN3C(=O)[C@H](C(C)(C)C)NC(=O)CSC[C@H](C(N)=O)NC(=O)[C@@H](CNC(=O)C[C@@H]3N=C(c4ccc(Cl)cc4)c4c(sc(C)c4C)-n4c(C)nnc43)NC(=O)CNC2=O)cc1 [Compound 2] ({CH2CO}-[Tle][Hyp][Phg(4-(4-Me-thiazol-5-yl))]G[dDap](JQ1acid)[dC]-NH2; thioether N-6)
4,< 20,Cc1ncsc1-c1ccc(C2NC(=O)[C@@H]3C[C@@H](O)CN3C(=O)[C@H](C(C)(C)C)NC(=O)CSC[C@H](C(N)=O)NC(=O)[C@@H](CNC(=O)C[C@@H]3N=C(c4ccc(Cl)cc4)c4c(sc(C)c4C)-n4c(C)nnc43)NC(=O)CCNC2=O)cc1 (some centres unmarked) [Compound 4] ({CH2CO}-[Tle][Hyp][X3][βAla][dDap](JQ1acid)[dC]-NH2; thioether N-6)
5,< 1,Cc1ncsc1-c1ccc([C@H]2NC(=O)[C@@H]3C[C@@H](O)CN3C(=O)[C@H](C(C)(C)C)NC(=O)CSC[C@H](C(N)=O)NC(=O)[C@@H](CNC(=O)C[C@@H]3N=C(c4ccc(Cl)cc4)c4c(sc(C)c4C)-n4c(C)nnc43)NC(=O)[C@@H](C)NC2=O)cc1 [Compound 26] ({CH2CO}-[Tle][Hyp][dPhg(4-(4-Me-thiazol-5-yl))][dA][dDap](JQ1acid)[dC]-NH2; thioether N-6)
6,< 0.05,Cc1sc2c(c1C)C(c1ccc(Cl)cc1)=N[C@@H](CC(=O)NC[C@H]1CCCNC(=O)[C@@H](Cc3ccc(-c4ccccc4)cc3)NC(=O)[C@@H]3C[C@@H](O)CN3C(=O)[C@H](C(C)(C)C)NC(=O)COCCNC1=O)c1nnc(C)n1-2 [Compound 67]
7,> 20,Cc1sc2c(c1C)C(c1ccc(Cl)cc1)=N[C@@H](CC(=O)NC[C@H]1NC(=O)[C@@H](C)NC(=O)C[C@@H](Cc3ccc(-c4ccccc4)cc3)NC(=O)[C@@H]3C[C@@H](O)CN3C(=O)[C@H](C(C)(C)C)NC(=O)COCCNC1=O)c1nnc(C)n1-2 [Compound 65] (cyclo([AEA][Tle][Hyp][X9][dA][dDap](JQ1acid)))

# The remaining lines, values behind:
row,SMILES,DC50 [µM]
1,Cc1ncsc1-c1ccc([C@H]2NC(=O)[C@@H]3C[C@@H](O)CN3C(=O)[C@H](C(C)(C)C)NC(=O)CSC[C@H](C(N)=O)NC(=O)[C@@H](CNC(=O)COCCOCCOCCNC(=O)C[C@@H]3N=C(c4ccc(Cl)cc4)c4c(sc(C)c4C)-n4c(C)nnc43)NC(=O)CNC2=O)cc1 [Compound 49] ({CH2CO}-[Tle][Hyp][dPhg(4-(4-Me-thiazol-5-yl))]G[dDap]([AEEEA-JQ1acid])[dC]-NH2; thioether N-6),> 20
2,Cc1ncsc1-c1ccc([C@H]2NC(=O)[C@@H]3C[C@@H](O)CN3C(=O)[C@H](C(C)(C)C)NC(=O)CCCCCNC(=O)[C@@H](CNC(=O)C[C@@H]3N=C(c4ccc(Cl)cc4)c4c(sc(C)c4C)-n4c(C)nnc43)NC(=O)CNC2=O)cc1 [Compound 38] (cyclo([Ahx][Tle][Hyp][dPhg(4-(4-Me-thiazol-5-yl))]G[dDap](JQ1acid))),< 1
3,Cc1ncsc1-c1ccc([C@H]2NC(=O)[C@@H]3C[C@@H](O)CN3C(=O)[C@H](C(C)(C)C)NC(=O)CSC[C@H](C(N)=O)NC(=O)[C@@H](CNC(=O)C[C@H]3N=C(c4ccc(Cl)cc4)c4c(sc(C)c4C)-n4c(C)nnc43)NC(=O)CNC2=O)cc1 [Compound 53] ({CH2CO}-[Tle][Hyp][dPhg(4-(4-Me-thiazol-5-yl))]G[dDap](X12)[dC]-NH2; thioether N-6),> 20
4,Cc1ncsc1-c1ccc([C@H]2NC(=O)[C@@H]3C[C@@H](O)CN3C(=O)[C@H](C(C)(C)C)NC(=O)COCCNC(=O)[C@@H](CNC(=O)C[C@@H]3N=C(c4ccc(Cl)cc4)c4c(sc(C)c4C)-n4c(C)nnc43)NC(=O)CNC2=O)cc1 [Compound 16] (cyclo([AEA][Tle][Hyp][dPhg(4-(4-Me-thiazol-5-yl))]G[dDap](JQ1acid))),< 1
5,Cc1ncsc1-c1ccc([C@@H]2NC(=O)[C@@H]3C[C@@H](O)CN3C(=O)[C@H](C(C)(C)C)NC(=O)COCCNC(=O)[C@@H](CNC(=O)C[C@@H]3N=C(c4ccc(Cl)cc4)c4c(sc(C)c4C)-n4c(C)nnc43)NC(=O)CNC2=O)cc1 [Compound 17] (cyclo([AEA][Tle][Hyp][Phg(4-(4-Me-thiazol-5-yl))]G[dDap](JQ1acid))),< 1
6,Cc1sc2c(c1C)C(c1ccc(Cl)cc1)=N[C@@H](CC(=O)NC[C@H]1NC(=O)CNC(=O)[C@@H](Cc3ccc(-c4ccccc4)cc3)NC(=O)[C@@H]3C[C@@H](O)CN3C(=O)[C@H](C(C)(C)C)n3cc(nn3)COCCNC1=O)c1nnc(C)n1-2 [Compound 48],< 0.05
7,Cc1sc2c(c1C)C(c1ccc(Cl)cc1)=N[C@@H](CC(=O)NC[C@H]1NC(=O)CNC(=O)[C@@H](Cc3ccc(-c4ccccc4)cc3)NC(=O)[C@@H]3C[C@@H](O)CN3C(=O)[C@H](C(C)(C)C)n3cc(nn3)COCCNC1=O)c1nnc(C)n1-2 [Compound 200],< 0.05
8,Cc1sc2c(c1C)C(c1ccc(Cl)cc1)=N[C@@H](CC(=O)N(C)C[C@H]1NC(=O)CNC(=O)[C@@H](Cc3ccc(-c4ccccc4)cc3)NC(=O)[C@@H]3C[C@@H](O)CN3C(=O)[C@H](C(C)(C)C)n3cc(nn3)COCCN(C)C1=O)c1nnc(C)n1-2 [Compound 204],> 20
9,Cc1ncsc1-c1ccc([C@H]2NC(=O)[C@@H]3C[C@@H](O)CN3C(=O)[C@H](C(C)(C)C)NC(=O)CSC[C@@H](C(N)=O)NC(=O)[C@@H](CNC(=O)C[C@@H]3N=C(c4ccc(Cl)cc4)c4c(sc(C)c4C)-n4c(C)nnc43)NC(=O)CNC2=O)cc1 [Compound 28] ({CH2CO}-[Tle][Hyp][dPhg(4-(4-Me-thiazol-5-yl))]G[dDap](JQ1acid)C-NH2; thioether N-6),> 20
10,Cc1ncsc1-c1ccc([C@@H]2NC(=O)[C@@H]3C[C@@H](O)CN3C(=O)[C@H](C(C)(C)C)NC(=O)CNC(=O)C[C@@H](CCCCNC(=O)C[C@@H]3N=C(c4ccc(Cl)cc4)c4c(sc(C)c4C)-n4c(C)nnc43)NC(=O)CNC2=O)cc1 [Compound 37] (cyclo(G[Tle][Hyp][Phg(4-(4-Me-thiazol-5-yl))]G[d(β3hK)](JQ1acid))),> 20
11,Cc1sc2c(c1C)C(c1ccc(Cl)cc1)=N[C@@H](CC(=O)NC[C@H]1CCCNC(=O)[C@@H](Cc3ccc(-c4ccccc4)cc3)NC(=O)[C@@H]3C[C@@H](O)CN3C(=O)[C@H](C(C)(C)C)n3cc(nn3)C3(CC3)CNC1=O)c1nnc(C)n1-2 [Compound 207],< 0.05
12,Cc1ncsc1-c1ccc([C@H]2NC(=O)[C@@H]3C[C@@H](O)CN3C(=O)[C@H](C(C)(C)C)NC(=O)CSC[C@H](C(N)=O)NC(=O)[C@@H](NC(=O)C[C@@H]3N=C(c4ccc(Cl)cc4)c4c(sc(C)c4C)-n4c(C)nnc43)NC(=O)CNC2=O)cc1 [Compound 68],> 20
13,Cc1sc2c(c1C)C(c1ccc(Cl)cc1)=N[C@@H](CC(=O)NC[C@H]1NC(=O)[C@@H](Cc3ccncc3)NC(=O)[C@@H](Cc3ccc(-c4ccccc4)cc3)NC(=O)[C@@H]3C[C@@H](O)CN3C(=O)[C@H](C(C)(C)C)NC(=O)COCCNC1=O)c1nnc(C)n1-2 [Compound 43] (cyclo([AEA][Tle][Hyp][dBip][d4Pal][dDap](JQ1acid))),< 0.05
